US10800752B2, “Substituted naphtho[2,3-b]furans as water-soluble prodrugs for preventing and/or treating cancer” (BOSTON BIOMEDICAL, INC., priority 2015, dated 2020)
Structures can show the parent of a compound that is named as a salt.

Experiments:
Solubility test = details: pH 2, aqueous buffer, thermodynamic from solid
[1] = Pharmacokinetics test, intravenous administration; details: intravenously administered to mice
[2] = Evaluation of a conversion rate to 2-acetylnaphtho[2,3-b]furan-4,9-dione in pH 7.4 phosphate buffer solution; type: physicochemical; details: Phosphate buffer solution (pH 7.4), 1 umol/L, 37° C., incubation time 120 min
Outline: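 Compounds at 1 umol/L were incubated at 37° C in human plasma, CD1 mouse plasma or pH 7.4 phosphate buffer, sampled up to 120 minutes, acid/acetonitrile-deproteinised and analysed by LC-MS (ESI positive). Conversion (%) derived from the peak area ratio of the active form to phenytoin internal standard.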

[3] = type: in vivo, CD1 (ICR) mice; details: orally administered to mice
Description: It was then centrifuged to obtain plasma.

[4] = Evaluation of a conversion rate to 2-acetylnaphtho[2,3-b]furan-4,9-dione in CD1 mouse plasma; type: in vitro ADME; details: CD1, mouse, 120 min, 1 umol/L
Experimental: For test compounds, the decrease rate of the test compounds and the conversion rate thereof to 2-acetylnaphtho[2,3-b]furan-4,9-dione in human plasma, CD1 mouse plasma, and pH 7.4 phosphate buffer solution were measured.
Test compounds were incubated at the concentration of 1 umol/L in human plasma (cat. no. 12250210, COSMO BIO), CD1 mouse plasma (cat. no. AP3054, KAC), and phosphate buffer solution at 37° C., and removed at predetermined times (0, 5, 10, 30, 60, and 120 minutes). After protein-removing treatment was performed, they are analyzed with LC-MS. It should be noted that the protein-removing treatment used acetonitrile containing: 10% volume of 1 mol/L hydrochloric acid; 1% volume of 46% citric acid; and phenytoin as an internal standard.
The measurement condition of LC-MS is as described below. LC-MS condition column: Kinetex 2.6 u PFP 100 A 50×2.1 mm Column temperature: 40° C.
Mobile phase: A: 0.1% formic acid-containing water
• B: 0.1% formic acid-containing acetonitrile A/B(min): 95/5(0)→5/95(3)→5/95(4)→95/5(4.1)→95/5(6) Flow rate: 0.4 mL/min Detection: ESI (positive mode) Injection volume: 10 uL
Measurement values are calculated from the peak area ratio in LC-MS between an internal standard material, phenytoin and an active form, 2-acetylnaphtho[2,3-b]furan-4,9-dione, and are expressed in %.
In the same way as Example 6, the incubation time was set as 120 minutes later, and the conversion rate of each of various test compounds to 2-acetylnaphtho[2,3-b]furan-4,9-dione in human plasma, CD1 mouse plasma, and pH 7.4 phosphate buffer solution was measured. A series of the present compounds were confirmed to be converted to 2-acetylnaphtho[2,3-b]furan-4,9-dione in pH 7.4 phosphate buffer solution in addition to human plasma and CD1 mouse plasma. Therefore, a series of the test compounds of the present invention were confirmed to be converted to the activated form via a route other than an enzymatic conversion.

[5] = Evaluation of a conversion rate to 2-acetylnaphtho[2,3-b]furan-4,9-dione in human plasma; type: in vitro ADME; details: human, 120 min, 1 umol/L
Outline: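 Compounds at 1 umol/L incubated at 37° C in human plasma, CD1 mouse plasma or pH 7.4 phosphate buffer, sampled up to 120 minutes. After acidified acetonitrile protein removal, parent loss and conversion to 2-acetylnaphtho[2,3-b]furan-4,9-dione measured by LC-MS (ESI positive).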

Solution stability test = type: physicochemical; details: for % Residual ratio: 25 umol/L
Experimental: For Example 6, Example 11, and Example 22, the stability in each pH was measured. Test compounds at a concentration of 25 umol/L in respective buffer solutions prepared at pH 2.0, 3.0, 5.0, 7.4, and 9.0 were allowed to stand at 25° C. After 0, 3, 6, 9, 12, and 24 hours, they were measured with HPLC.
The buffer solutions used at respective pHs are as described below. pH 2.0: 50 mmol/L glycine buffer solution pH 3.0: 50 mmol/L citrate buffer solution pH 5.0: 50 mmol/L citrate buffer solution pH 7.4: 50 mmol/L phosphate buffer solution pH 9.0: 50 mmol/L glycine buffer solution
The measurement condition of HPLC is as described below.
Column temperature: 40° C.
Mobile phase: A: 0.1% trifluoroacetic acid-containing water

With `CC(=O)c1cc2c(OC(=O)NCCNCC(=O)O)c3ccccc3c(OC(=O)NCCNCC(=O)O)c2o1` [Example 4, 2,2′-((((((2-Acetylnaphtho[2,3-b]furan-4,9-diyl)bis(oxy))bis(carbonyl))bis(azanediyl))bis(ethane-2,1-diyl))bis(azanediyl))diacetic acid dihydrochloride] the solubility at 24 hours (Solubility test; Solubility in pH 2.0 buffer solution, 50 mmol/L glycine buffer solution (pH 2.0), room temperature, 24 hours shaking) was > 5000 µg/mL, the “production of 2-acetylnaphtho[2,3-b]furan-4,9-dione (Activated form 1) (in words)” value (shortened to “production”) [1] was “rapidly produced” and the “% Measurement value (conversion rate to 2-acetylnaphtho[2,3-b]furan-4,9-dione)” value (from here on “% Measurement value”) ([2]; dihydrochloride) was 53%. For the same molecule, the “concentration of 2-acetylnaphtho[2,3-b]furan-4,9-dione (Activated form 1) observed (in words)” value [3] was “high concentration”.
For `CC(=O)c1cc2c(OC(=O)NCCNCCC(=O)O)c3ccccc3c(OC(=O)NCCNCCC(=O)O)c2o1` [Example 5, 3,3′-((((((2-Acetylnaphtho[2,3-b]furan-4,9-diyl)bis(oxy))bis(carbonyl))bis-(azanediyl))bis(ethane-2,1-diyl))bis(azanediyl))dipropionic acid dihydrochloride], the “production” value [1] was “rapidly produced”, the “% Measurement value” value ([2]; dihydrochloride) was 70% and the “concentration of 2-acetylnaphtho[2,3-b]furan-4,9-dione (Activated form 1) observed (in words)” value [3] was “high concentration”.
With `CC(=O)c1cc2c(OC(=O)OCCC[C@H](N)C(=O)O)c3ccccc3c(OC(=O)OCCC[C@H](N)C(=O)O)c2o1` [Example 22] the solubility at 24 hours (Solubility test; glycine buffer solution) was > 5000 µg/mL, the “% Measurement value” value [4] was 56% and the “% Measurement value” value [2] was 22%. For the same molecule, the “% Measurement value” value [5] was 37%, the “stability in solution (in words)” value (Solution stability test; pH 2.0, 25° C.) was “sufficient stability” and the “% Residual ratio” value (Solution stability test; pH 2.0, 25° C., 0 hr) was 100%. For the same molecule, the “% Residual ratio” value (Solution stability test; pH 2.0, 25° C., 3 hr) was 97.0%, the “% Residual ratio” value (Solution stability test; pH 2.0, 25° C., 6 hr) was 96.3% and the “% Residual ratio” value (Solution stability test; pH 2.0, 25° C., 9 hr) was 97.8%. The “% Residual ratio” value (Solution stability test; pH 2.0, 25° C., 12 hr) was 97.1%, the “% Residual ratio” value (Solution stability test; pH 2.0, 25° C., 24 hr) was 91.8% and the “stability in solution (in words)” value (Solution stability test; pH 3.0, 25° C.) was “sufficient stability”. For the same molecule, the “% Residual ratio” value (Solution stability test; pH 3.0, 25° C., 0 hr) was 100%, the “% Residual ratio” value (Solution stability test; pH 3.0, 25° C., 3 hr) was 98.6% and the “% Residual ratio” value (Solution stability test; pH 3.0, 25° C., 6 hr) was 97.8%. For the same molecule, the “% Residual ratio” value (Solution stability test; pH 3.0, 25° C., 9 hr) was 96.9%, the “% Residual ratio” value (Solution stability test; pH 3.0, 25° C., 12 hr) was 96.0% and the “% Residual ratio” value (Solution stability test; pH 3.0, 25° C., 24 hr) was 92.6%. The “% Residual ratio” value (Solution stability test; pH 5.0, 25° C., 0 hr) was 100%, the “% Residual ratio” value (Solution stability test; pH 5.0, 25° C., 3 hr) was 81.2% and the “% Residual ratio” value (Solution stability test; pH 5.0, 25° C., 6 hr) was 69.4%. The “% Residual ratio” value (Solution stability test; pH 5.0, 25° C., 9 hr) was 58.8%, the “% Residual ratio” value (Solution stability test; pH 5.0, 25° C., 12 hr) was 49.7% and the “% Residual ratio” value (Solution stability test; pH 5.0, 25° C., 24 hr) was 24.5%. For the same molecule, the “% Residual ratio” value (Solution stability test; pH 7.4, 25° C., 0 hr) was 100%, the “% Residual ratio” value (Solution stability test; pH 7.4, 25° C., 3 hr) was 0% and the “% Residual ratio” value (Solution stability test; pH 7.4, 25° C., 6 hr) was 0%. For the same molecule, the “% Residual ratio” value (Solution stability test; pH 7.4, 25° C., 9 hr) was 0%, the “% Residual ratio” value (Solution stability test; pH 7.4, 25° C., 12 hr) was 0% and the “% Residual ratio” value (Solution stability test; pH 7.4, 25° C., 24 hr) was 0%. For the same molecule, the “% Residual ratio” value (Solution stability test; pH 9.0, 25° C., 0 hr) was 100%, the “% Residual ratio” value (Solution stability test; pH 9.0, 25° C., 3 hr) was 0% and the “% Residual ratio” value (Solution stability test; pH 9.0, 25° C., 6 hr) was 0%. The “% Residual ratio” value (Solution stability test; pH 9.0, 25° C., 9 hr) was 0%, the “% Residual ratio” value (Solution stability test; pH 9.0, 25° C., 12 hr) was 0% and the “% Residual ratio” value (Solution stability test; pH 9.0, 25° C., 24 hr) was 0%.
For `CC(=O)c1cc2c(OC(=O)OCCCCNCC(=O)O)c3ccccc3c(OC(=O)OCCCCNCC(=O)O)c2o1` [Example 23, 2,2′-((((((2-Acetylnaphtho[2,3-b]furan-4,9-diyl)bis(oxy)bis(carbonyl))bis(oxy))bis(butane-4,1-diyl))bis(azanediyl)diacetic acid dihydrochloride], the solubility at 24 hours (Solubility test; glycine buffer solution) was > 5000 µg/mL and the “production” value [1] was “rapidly produced”.
